The text below walks through data of patent US10197556B2, “Methods to detect non-genotoxic carcinogens using flatworms” (Universiteit Gent, priority 2015, dated 2019).

Each structure is given as a SMILES string. Where a name gives a salt, the structure may show the parent alone. Read-outs that look alike come from different tables or passages of the source.

The test system of data set [1] is Macrostomum lignano. The procedure:
Cultures of Macrostomum lignano (37) were grown in artificial seawater (ASW) enriched with f/2-medium (40) and fed ad libitum with the diatom Nitzschia curvilineata (PAE culture collection; UGent on the World Wide Web at pae.ugent.be/collection.htm), as described in references 41 and 43.
One week before starting chemical exposure, a six-well plate filled with 4 ml f/2 medium (Novolab NV) was inoculated with diatoms to achieve an ad libitum food source during exposure. Starvation of the worms leads to a decrease in stem cell proliferation (as shown in Nimeth et al (29)), which would interfere with stem cell proliferation, the endpoint of the assay. Before the start of exposure, fifteen adult worms per condition were pipetted in each well, which was then emptied by pipetting without drying out the worms and refilled with f/2 medium (control), if required, F2+0.05% DMSO (vehicle control) and a concentration of the chemical.
The DMSO concentration in the vehicle control never exceeded 0.05%. This represented the maximum DMSO percentage in the chemical's highest test concentration.
To select the appropriate compound concentration, first, a broad concentration range-finding experiment (spacing factor 10; two weeks exposure) was carried out. Based on this pilot range finding, a fine-tuned range finding (spacing factor less than or equal to 2; for D-Mannitol factor 5) was chosen to conduct the assay. The maximum concentration tested depended on the test compound solubility and the requirement of a survival of twelve out of fifteen worms at the end of exposure.
For all chemicals investigated in this disclosure, the medium was refreshed weekly.
After a preliminary test (CP as reference) on different exposure times ranging from two days to six weeks, the worms were exposed for a period of two weeks, after which they were subjected to phosphorylated histone H3 immunostaining (PH3) to quantify mitosis.
To quantify mitotic cells in whole mount specimens, the mitotic marker anti-PH3 was used. The staining was performed by first relaxing the animals in a 1:1 mixture of MgCl2.6H2O (7.14%) and ASW (5 minutes), then in MgCl2.6H2O (7.14%) (undiluted, 5 minutes), followed by fixation in paraformaldehyde (PFA, 4% in PBS, 60 minutes). Animals were then rinsed with phosphate-buffered saline (PBS, 3×5 minutes) and blocked in bovine serum albumin, containing TRITON® (BSA-T, 0.1% TRITON® X-100, 60 minutes). Subsequently, animals were incubated in primary rabbit-anti-phos-H3 (1:300 in BSA-T, overnight, 4° C., Upstate Biotechnology), rinsed in PBS (3×5 minutes) and incubated in secondary TRITC-conjugated swine-anti-rabbit (1:150 in BSA-T, 1 hour, DAKO). Finally, animals were washed with PBS (3×5 minutes) and slides were mounted using Vectashield (Vector Laboratories). Slides were analyzed using a Leica 2500P microscope equipped with epifluorescence, a 40× objective and a DFC360FX CCD camera.
All somatic PH3-positive cells were counted manually using the Image J cell counter plugin (44) (FIG. 1). Gonadal PH3+ cells were not included in the analysis because of 1) the high density of divisions in that region that can lead to overlapping signals and 2) the germ line representing a separate population of cells, differentially tolerant to exposure, which can result in quantification variability.
The cut-off value of the assay was determined based on density plots (R version 2.15.3; (33)) of the number of mitotic stem cells of all experiments for controls (sea water and DMSO), non-carcinogens, genotoxic carcinogens and non-genotoxic carcinogens. The cut-off value of 30 lays in the tail of the distribution corresponding to the 97.5 percentile or two standard deviations.
Concentrations resulting in the death of 20% of the worms (three out of fifteen) during exposure were considered cytotoxic and were not analyzed.

Data set [2] relates to Schmidtea mediterranea. The procedure: Asexual strains of the freshwater planarian Schmidtea mediterranea (38, 45) were maintained in culture medium, consisting of water, that was first deionized and then distilled, and to which the following nutrients were added: 1.6 mM NaCl, 1.0 mM CaCl2, 1.0 mM MgSO4, 0.1 mM MgCl2, 0.1 mM KCl and 1.2 mM NaHCO3. The animals were continuously kept in the dark at a room temperature of 20° C. and were fed once a week with veal liver.
Experiments were performed with regenerating animals (heads and tails) to accelerate initial responses to carcinogenic compounds, as this process of massive cell proliferation, migration and differentiation resembles the process of carcinogenesis, and, possibly differently affects the dynamics of stem cells toward genotoxic and non-genotoxic carcinogen exposures (16, 32, 39).
In each experimental condition, animals were cut transversally immediately before exposure to a genotoxic, non-genotoxic or non-carcinogen concentration, medium (control) or medium with DMSO (vehicle control). Exposures were performed in six-well plates (4 ml/well). To exclude intrinsic effects of DMSO on cell proliferation, the DMSO vehicle concentration never exceeded 0.05% and interaction effects between the test compound and DMSO were investigated using a two-way ANOVA (32). […] Animals were fed once a week with veal liver and starved for one week before stem cell proliferation measurements. Stem cell proliferation was measured after one day of regeneration (the mitotic minimum of regeneration), after three days (the mitotic maximum of regeneration), after one week (the end stage of regeneration) after two and six weeks (during homeostasis), as well as at the appearance of organismal phenotypes (15, 46, 47). Phenotypic effects were monitored daily with a stereo microscope.
An in vivo study allows the investigation of the entire organism's response to carcinogenic compounds and, as such, makes it possible to link carcinogen-induced stem cell proliferation with the organism's phenotype. Conditions were subdivided according to their phenotypic effects into concentrations that caused no observable phenotypic effects (category 1), phenotypic effects (category 2, described in phenotypic effect screening) and concentrations that induced organismal death (category 3). Phenotypic parameters that were monitored daily were tissue regression, lesion, blisters, bloating, pigmentation, behavior, regenerative success, body size, tissue outgrowth, flattened posture and organismal death (35). Stem cell proliferation was quantified at the appearance of systemic effects (category 2 concentrations).

Data set [3] in a line: Solubility of test compound in the exposure medium. Format: physicochemical. Conditions: concentrations higher than 5 mM.
In data set [4] the test system is Schmidtea mediterranea. Conditions: in vivo. How it is done: Asexual strains of the freshwater planarian Schmidtea mediterranea (38, 45) were maintained in culture medium, consisting of water, that was first deionized and then distilled, and to which the following nutrients were added: 1.6 mM NaCl, 1.0 mM CaCl2, 1.0 mM MgSO4, 0.1 mM MgCl2, 0.1 mM KCl and 1.2 mM NaHCO3. The animals were continuously kept in the dark at a room temperature of 20° C. and were fed once a week with veal liver. […]
In each experimental condition, animals were cut transversally immediately before exposure to a genotoxic, non-genotoxic or non-carcinogen concentration, medium (control) or medium with DMSO (vehicle control). […] Stem cell proliferation was measured after one day of regeneration (the mitotic minimum of regeneration), after three days (the mitotic maximum of regeneration), after one week (the end stage of regeneration) after two and six weeks (during homeostasis), as well as at the appearance of organismal phenotypes (15, 46, 47). Phenotypic effects were monitored daily with a stereo microscope.

[5] abbreviates: category 2 concentrations, three days (MMS), one week (4NQO), two weeks (S-PB, CPZ, MPH).
Setting [6] is: asexual strain, Schmidtea mediterranea, in vivo.
Where [7] appears, read: asexual strain, Schmidtea mediterranea, in vivo, 2 weeks.

Consider `O=[N+]([O-])c1cc[n+]([O-])c2ccccc12` [4-Nitroquinoline-1-oxide], for which, in data set [1] (0.125 μM, Experiment 2, two weeks exposure), the “proportion of worms having 30 or more mitotic stem cells” value (“proportion” below) amounted to 16.7%. Moreover, the “proportion” value in data set [1] (0.5 μM, Experiment 1, two weeks exposure) was 77.8%. In addition, the “proportion” value in data set [1] (0.5 μM, Experiment 2, two weeks exposure) turned out to be 0%. For the same molecule, in data set [1] (0.5 μM, Experiment 3, two weeks exposure), the “proportion” value is on record as 36.4%. In addition, in data set [2] (4NQO, exposure one week), the “Cat. 1 concentrations: No effects on phenotype” value lay in the range of 0.1 to 0.5 µM, the “Cat. 2 concentrations: Phenotypic effects” value (“Cat. 2 concentrations” below) was 2 µM and the “Cat. 3 concentrations: Mortality” value turned out to be 5 µM. Besides, in data set [2] (setting [5]), the “Number of animals with Behavior effects” value was 3/4, the “Number of animals with Pigmentation” value was 2/4, the “Number of animals with Regenerative success effects” value is listed as 4/4 and the “Number of animals with Tissue regression” value is 2/4.
Consider `CN(C)CCN(Cc1cccs1)c1ccccn1` [MPH, methapyrilene hydrochloride], for which, in data set [2] (setting [6]), the “Number of animals with Behavior effects” value is on record as 8/8 and the “Number of animals with Body size effects” value is listed as 8/8.
As for `OC[C@@H](O)[C@@H](O)[C@H](O)[C@H](O)CO` [D-mannitol], the “proportion” value is reported as 0% in data set [1] (1000 μM, Experiment 1, two weeks exposure); 0% in data set [1] (1000 μM, Experiment 2, two weeks exposure); 0% in data set [1] (1000 μM, Experiment 3, two weeks exposure); 0% in data set [1] (5000 μM, Experiment 1, two weeks exposure); 0% in data set [1] (5000 μM, Experiment 2, two weeks exposure); 0% in data set [1] (5000 μM, Experiment 3, two weeks exposure). The “concentration up to which predicted negative” value in data set [1] (all three experiments, two weeks exposure) was “up to 5 mM”. Also, the “worms having a number of mitotic stem cells exceeding the cut-off value” in data set [1] (all three experiments, up to 5 mM, two weeks exposure) is on record as 0%. Further, the “prediction by the assay in the experiments” value in data set [1] (two weeks exposure, outcome over the experiments) is given as “predicted negative by the assay for all three experiments”. Also, the “solubility in the medium” value in data set [3] is given as “insolubility in the medium”. The “effects on proliferative responses” value in data set [4] is recorded as “no significant effects”. Besides, in data set [2] (in vivo), the “phenotypic effects induced by exposure” value was “no phenotypic effects”.
`CN(C)CCCN1c2ccccc2Sc2ccc(Cl)cc21` [CPZ, chlorpromazine hydrochloride]: in data set [2] (setting [6]), the “Number of animals with Behavior effects” value is 4/4, the “Number of animals with Body size effects” value was 2/2 and the “concentrations that trigger phenotypic effects” value was determined as 1000 nM. Also, in data set [2] (setting [7]), the “Cat. 1 concentrations: No effects on phenotype” value was 0.25 to 0.5 µM, the “Cat. 2 concentrations” value is 0.75 to 1 µM and the “Cat. 3 concentrations: Mortality” value stood at 2 µM.
Consider `CCC1(c2ccccc2)C(=O)NC(=O)NC1=O` [S-PB, sodium phenobarbital], for which, in data set [2] (S-PB, exposure two weeks), the “Cat. 1 concentrations: No effects on phenotype” value is 1000 µM, the “Cat. 2 concentrations” value was 2000 µM and the “Cat. 3 concentrations: Mortality” value is 4000 µM. Also, the “Number of animals with Behavior effects” value in data set [2] (setting [5]) is reported as 2/2.
Consider `COS(C)(=O)=O` [MMS, methyl methane sulphonate], for which, in data set [2] (MMS, exposure three days), the “Cat. 2 concentrations” value lay in the range of 400 to 500 µM and the “Cat. 3 concentrations: Mortality” value came to 1000 µM. Further, in data set [2] (setting [5]), the “Number of animals with Behavior effects” value is listed as 14/14, the “Number of animals with Body size effects” value is reported as 10/14, the “Number of animals with Pigmentation” value is reported as 1/14 and the “Number of animals with Regenerative success effects” value is reported as 14/14. Besides, the “Number of animals with Tissue regression” value in data set [2] (setting [5]) is 3/14.
